In US20240261307A1, “INHIBITORS OF SARS-COV-2 VIRAL REPLICATION AND USES THEREOF” (ARIZONA BOARD OF REGENTS ON BEHALF OF THE UNIVERSITY OF …, priority 2021, published 2024):
Entries after “also recorded” stand apart in the source; their conditions may differ. Non-standard residues stand in square brackets, D forms with d. Residues, ends and D or L forms follow the SMILES beside them. No end group written: not given here. Hyp = O=C(O)[C@@H]1C[C@@H](O)CN1; aThr = C[C@H](O)[C@H](N)C(=O)O

Legend:
SARS-CoV-2 [1] = experiment: Viral reduction plaque assay in Vero cells; format: cell-based; parameters: key to Inhibition of Infection: ++: Validated strong inhibitor; +/−: Validated modest inhibitor; −: Validated no effect; conditions: for Inhibition of Infection: in-vitro experiments, SARS-CoV2; for number of infected cells compared to positive control: Vero cells, increasing concentrations, 4 days
[2] = tested on: type I IFNs, ISGs, proinflammatory cytokines; format: cell-based, human; conditions: for type I IFNs, proinflammatory cytokines and ISGs in infected cells: cell line not given
SARS-CoV-2 [3] = format: cell-based
SARS-CoV-2 [4] = experiment: Cytopathic effect (CPE) assay in Vero cells with P-gp inhibitor CP-100356; format: cell-based; conditions: for EC50: Severe acute respiratory syndrome coronavirus 2, read-out: EC50 of inhibition of virus-induced CPE
West Nile virus (WNV) = experiment: WNV replication in Vero cells by viral foci assay; format: cell-based; conditions: 100 μM
Excerpt: To exclude such possibilities, we tested the ability of any of the 4 active compounds plus one negative control compound to suppress the replication of West Nile virus (WNV), an RNA virus of the unrelated flavivirus family. […] Together, our experiments confirmed compounds ZINC000008077555, ZINC000230464020, ZINC000006623878, and ZINC000085876900 as specific inhibitors of SARS-CoV-2 replication but not interfering with the host cell.
The number of infectious SARS-CoV-2 virions was quantified by viral plaque assay. To this end, Vero cells were incubated with SARS-CoV-2 for 2 hrs and subsequently overlaid with 1% methylcellulose in culture medium. After 3-4 days, the cells were fixed in 10% formalin for 30 min, washed under tap water, and stained with crystal violet. The number of plaques corresponding to infections of individual cells by single virions was counted on a light table. The quantification of infectious WNV virions was performed similarly with the exception that the number of infected cell foci was determined by intracellular staining using a biotinylated anti-WNV-E antibody (clone E16), followed by an HRP-labeled anti-streptavidin antibody. HRP activity was detected with KPL Trueblue substrate (SeraCare).
Viral replication of SARS-CoV-2 in the presence of Mpro inhibitors was measured in Vero or Calu-3 cells in three ways. […] The virus-induced cytopathic effect was measured by determining the fraction of formalin-fixed adherent cells that remained after 3 days (Vero cells) or 4 days (Calu-3 cells). To this end, the cells were stained with crystal violet, PBS-washed, and air-dried. Following resuspension in methanol, crystal violet staining was measured in the spectrophometer at OD594. Cytotoxicity of the compounds was measured in parallel by the staining of uninfected cells incubated with the […]. In a second approach, drug activity was determined in Vero cells directly by viral plaque assay, using between 100-500 Pfu/well of virus and indicated concentrations of Mpro inhibitors. In a third approach, Vero cells were infected with SARS-CoV-2 or WNV at an MOI of 0.01 in the presence of […] of Mpro inhibitors for 2-3 days. Viral replication was measured indirectly at indicated time points by quantifying the titers of infectious virions in the supernatants with viral plaque or foci assays in the absence of the compounds. Viral replication in Calu-3 cells in the presence of indicated concentrations of compounds was determined similarly.

Vero cells = conditions: 100 μM, with 2 μM CP-100356
Procedure: Vehicle-treated cells served as controls. The amounts of infectious virions in the cell supernatants were determined 2 days later by viral plaque assay.

C[C@H](O)[C@H](N)C(=O)N[C@@H](Cc1ccc(O)cc1)C(=O)N[C@@H](CCCCN)C(=O)O [ZINC000005462364, (2S)-6-amino-2-[[(2S)-2-[[(2S,3S)-2-amino-3-hydroxybutanoyl]amino]-3-(4-hydroxyphenyl)propanoyl]amino]hexanoic acid] (H-[aThr]-Tyr-Lys-OH)
Inhibition of Infection (SARS-CoV-2 [1]): −

COc1ccc(CNC(=O)Cc2c(C)c3ccc(O)c(O)c3oc2=O)c(OC)c1 [ZINC000006623878, 2-(7,8-dihydroxy-4-methyl-2-oxochromen-3-yl)-N-[(2,4-dimethoxyphenyl)methyl]acetamide]
type I IFNs, proinflammatory cytokines and ISGs in infected cells [2]: enhance | number of infected cells compared to positive control (SARS-CoV-2 [1]): significant drop | Inhibition of Infection (SARS-CoV-2 [1]): ++ | SARS-CoV-2 replication (viral titers in culture medium) (SARS-CoV-2 [3]): suppress SARS-CoV-2 replication | suppression of SARS-CoV-2 replication, post-treatment (SARS-CoV-2 [3]): significant suppression | suppression of SARS-CoV-2 replication, pre-treatment (SARS-CoV-2 [3]): significant suppression | suppression of viral replication (SARS-CoV-2 [3]): approximately 10 fold | EC50 (SARS-CoV-2 [4]): 4.6 to 22.6 µM | replication of WNV (West Nile virus (WNV)): did not significantly restrict replication of WNV; also recorded: do not impact WNV replication

NC(=O)CC[C@H](NC(=O)OCc1ccccc1)C(=O)NCCc1ccc(F)cc1 [ZINC000008077555, benzyl N-[(2S)-5-amino-1-[2-(4-fluorophenyl)ethylamino]-1,5-dioxopentan-2-yl]carbamate]
type I IFNs, proinflammatory cytokines and ISGs in infected cells [2]: enhance | number of infected cells compared to positive control (SARS-CoV-2 [1]): significant drop | Inhibition of Infection (SARS-CoV-2 [1]): +/− | SARS-CoV-2 replication (viral titers in culture medium) (SARS-CoV-2 [3]): suppress SARS-CoV-2 replication | suppression of viral replication (SARS-CoV-2 [3]): approximately 10 fold | EC50 (SARS-CoV-2 [4]): 4.6 to 22.6 µM | replication of WNV (West Nile virus (WNV)): did not significantly restrict replication of WNV | replication of WNV (West Nile virus (WNV); listed as ZINC00000807555): do not impact WNV replication

Nc1ncnc2c1ncn2[C@@H]1O[C@H](COP(=O)(O)OP(=O)(O)OP(=O)(O)OC[C@@H]2O[C@H](n3cnc4c(N)ncnc43)[C@H](O)[C@@H]2O)[C@H](O)[C@@H]1O [ZINC000085591448, [[(2S,3S,4R,5S)-5-(6-aminopurin-9-yl)-3,4-dihydroxyoxolan-2-yl]methoxy-hydroxyphosphoryl] [[(2R,3R,4S,5R)-5-(6-aminopurin-9-yl)-3,4-dihydroxyoxolan-2-yl]methoxy-hydroxyphosphoryl] hydrogen phosphate]
Inhibition of Infection (SARS-CoV-2 [1]): −

COc1ccc(-c2coc3c4c(cc(O)c3c2=O)OC(=O)C[C@@H]4c2ccc(OCC(N)=O)cc2)cc1 [ZINC000085876900, 2-[4-[(10R)-5-hydroxy-3-(4-methoxyphenyl)-4,8-dioxo-9,10-dihydropyrano[2,3-h]chromen-10-yl]phenoxy]acetamide]
expression of type I IFNs, ISGs and proinflammatory cytokines vs cells infected without compound [2]: significantly higher expression | type I IFNs, proinflammatory cytokines and ISGs in infected cells [2]: enhance | number of infected cells compared to positive control (SARS-CoV-2 [1]): significant drop | SARS-CoV-2 replication (viral titers in culture medium) (SARS-CoV-2 [3]): suppress SARS-CoV-2 replication | suppression of SARS-CoV-2 replication, post-treatment (SARS-CoV-2 [3]): significant suppression | suppression of SARS-CoV-2 replication, pre-treatment (SARS-CoV-2 [3]): significant suppression | suppression of viral replication (SARS-CoV-2 [3]): approximately 10 fold | EC50 (SARS-CoV-2 [4]): 4.6 to 22.6 µM | toxicity (Vero cells): toxic | replication of WNV (West Nile virus (WNV)): did not significantly restrict replication of WNV; also recorded: do not impact WNV replication

CC(C)n1[nH]c(=O)c2c(-c3ccc(O)c(O)c3)c3oc4c(O)c(=O)ccc4c3[nH]c21 [ZINC000085879857, 10-(3,4-dihydroxyphenyl)-6-hydroxy-14-propan-2-yl-8-oxa-13,14,16-triazatetracyclo[7.7.0.02,7.011,15]hexadeca-1,3,6,9,11(15)-pentaene-5,12-dione]
Inhibition of Infection (SARS-CoV-2 [1]): −

COc1cc([C@H](CC(=O)NCCc2ccc(O)c(O)c2)c2c(O)nc3ccccn3c2=O)cc2c1OCCO2 [ZINC000230464020, (3S)-N-[2-(3,4-dihydroxyphenyl)ethyl]-3-(2-hydroxy-4-oxopyrido[1,2-a]pyrimidin-3-yl)-3-(5-methoxy-2,3-dihydro-1,4-benzodioxin-7-yl)propanamide]
expression of type I IFNs, ISGs and proinflammatory cytokines vs cells infected without compound [2]: significantly higher expression | type I IFNs, proinflammatory cytokines and ISGs in infected cells [2]: enhance | number of infected cells compared to positive control (SARS-CoV-2 [1]): significant drop | SARS-CoV-2 replication (viral titers in culture medium) (SARS-CoV-2 [3]): suppress SARS-CoV-2 replication | suppression of SARS-CoV-2 replication, post-treatment (SARS-CoV-2 [3]): significant suppression | suppression of SARS-CoV-2 replication, pre-treatment (SARS-CoV-2 [3]): significant suppression | suppression of viral replication (SARS-CoV-2 [3]): approximately 10 fold | EC50 (SARS-CoV-2 [4]): 4.6 to 22.6 µM | replication of WNV (West Nile virus (WNV)): did not significantly restrict replication of WNV | replication of WNV (West Nile virus (WNV); listed as ZINC0002304644020): do not impact WNV replication

C[C@H](NC(=O)[C@H](N)Cc1ccc(O)cc1)C(=O)N[C@H](Cc1ccccc1)C(=O)N1C[C@H](O)C[C@H]1C(=O)N[C@@H](Cc1ccc(O)cc1)C(N)=O [ZINC000644163977, (2S,4R)-N-[(2S)-1-amino-3-(4-hydroxyphenyl)-1-oxopropan-2-yl]-1-[(2R)-2-[[(2S)-2-[[(2R)-2-amino-3-(4-hydroxyphenyl)propanoyl]amino]propanoyl]amino]-3-phenylpropanoyl]-4-hydroxypyrrolidine-2-carboxamide] (H-[dY]A[dF][Hyp]Y-NH2)
number of infected cells compared to positive control (SARS-CoV-2 [1]): modest | Inhibition of Infection (SARS-CoV-2 [1]): +/− | SARS-CoV-2 replication (viral titers in culture medium) (SARS-CoV-2 [3]): did not | activity against virus-induced CPE (SARS-CoV-2 [4]): negligible activity

RYLGYL [ZINC000097972782, (2S)-2-[[(2S)-2-[[2-[[(2S)-2-[[(2S)-2-[[(2S)-2-amino-5-(diaminomethylideneamino)pentanoyl]amino]-3-(4-hydroxyphenyl)propanoyl]amino]-4-methylpentanoyl]amino]acetyl]amino]-3-(4-hydroxyphenyl)propanoyl]amino]-4-methylpentanoic acid]
Inhibition of Infection (SARS-CoV-2 [1]): −
